In the NIST ThermoML archive (doi:10.1021/je800071q):
Numbers after ± are expanded uncertainties.

Assays:
[1] = 101.33 kPa, Liquid; for mass density: 298.1 K; for viscosity: 298.15 K
[2] = refractive index (Na D-line) (dimensionless); conditions: 298.1 K, 101.33 kPa, Liquid
[3] = Capillary tube (Ostwald / Ubbelohde) method

| mass density ([1]; Vibrating tube method) | refractive index ([2]; Standard Abbe refractometry) | SMILES | viscosity [1, 3] | mass density [1] | viscosity [1] | refractive index [2] |
| --- | --- | --- | --- | --- | --- | --- |
| 687.84 ± 0.23 kg/m3 | 1.38921 ± 0.00041 | CC(C)CC(C)(C)C [2,2,4-trimethylpentane] | – | – | – | – |
| 1058.59 ± 0.14 kg/m3 | 1.5253 ± 0.00041 | c1ccsc1 [thiophene] | 0.612 ± 0.007 mPa·s | – | – | – |
| – | – | CCCCCCCCn1cc[n+](C)c1.O=S(=O)([N-]S(=O)(=O)C(F)(F)F)C(F)(F)F | – | 1319.78 ± 4.3 kg/m3 | 90.37 ± 4.8 mPa·s | 1.4327 ± 0.00089 |

| SMILES | mass density ([1]; Vibrating tube method) | refractive index ([2]; Standard Abbe refractometry) | viscosity [1, 3] | mass density [1] | viscosity [1] | refractive index [2] |
| --- | --- | --- | --- | --- | --- | --- |
| Cc1ccccc1 [toluene] | 862.2 ± 0.16 kg/m3 | 1.49393 ± 0.00041 | 0.577 ± 0.007 mPa·s | – | – | – |
